Measured values from patent US8217050B2, “Adenine derivative as inhibitors of HSP90 for the treatment of cancer” (Chroma Therapeutics Limited, priority 2006, dated 2012).

What was measured:
[1] = target: T1, human recombinant his-tagged HSP90α (Homo sapiens, UniProt P07900); experiment: Hsp90 HTRF assay (competition with biotinylated GM for binding to HSP90); conditions: bio-GM displacement, 20 h incubation at room temperature, read-out: Inhibitor Activity vs Hsp90
T1 construct: purchased Prospec Technogene #HSP90
Description: An HTRF (homogeneous time resolved fluorescence assay) assay was used to measure the interaction of the compounds with HSP90.
The assay measures binding of biotinylated GM (bio-GM; Biomol, #EI-341, lot: A9199a) to human recombinant his-tagged HSP90α (HSP90; Prospec Technogene, #HSP90, lot: 260HSP9001). A signal is generated by fluorescence resonance energy transfer from an Europium-cryptate labeled anti-his antibody (anti-6HIS-Cryptate; Cisbio International, #61HISKLA, lot: 33V) via the HSP90-GM-biotin complex to a fluorescence acceptor (allophycocyanin) linked to streptavidin (SA-XL; Cisbio International, #610SAXLB, lot: 089).
Unlabeled GM or compounds compete with the bio-GM for binding to HSP90 resulting in reduced fluorescence energy transfer/assay signal.
For the assay a preformed (1 h incubation) complex of HSP90 with the anti-his-K is added to the compound solution in a 384 well microplate (Corning, #3710) and incubated for 15 min. A preformed (1 h incubation) complex of bio-GM with the SA-XL was added to the wells and incubated for 20 h. All incubations were performed at room temperature. The final assay volume was 50 μl/well. The final concentrations in the assay were: 50 mM Hepes pH 7.3, 50 mM NaCl, 100 mM KF, 1 mM EDTA, 1 mM DTT, 0.1% Triton-X-100, 1 nM anti-his-K, 40 nM HSP90, 40 nM SA-XL, 40 nM bio-GM. Test compounds were dissolved in DMSO, prediluted in assay buffer and tested at a final concentration between 5000 nM and 0.3 nM. The resulting DMSO concentration was 0.5% and included in all controls. High controls were without test compounds, low controls without test compounds, without HSP90 and without bio-GM. As a reference inhibitor unlabeled GM was used in the same concentrations as the test compounds.
Inhibition was calculated compared to the assay controls using an Excel spreadsheet (Microsoft). IC50 values were calculated by non-linear least squares fitting to the standard dose-response model using GraphPad Prism (GraphPad Software Inc).

HCT 116 cell line = experiment: Cell inhibition assay (WST-1 cell proliferation, 120 hrs); type: cell-based; conditions: Homo sapiens, HCT-116, 120 hrs, read-out: Inhibitor Activity vs HCT 116 cell line
Description: Cells were seeded in 96W tissue culture plates (1 well=30 mm^2) at a density of 500 cells per well in 50 μl of the appropriate culture medium (see below). 24 hrs later 50 μl of the compound prepared in the same medium was added as 4 fold dilutions to give final concentrations in the range 0.15 nM-2500 nM (n=6 for each concentration). The plates were then incubated at 37° C., 5% CO2 for 120 hrs. Cell proliferation was assessed using WST-1 (a metabolic indicator dye, Roche Cat no. 1 644 807) according to the manufacturers instructions. The results were calculated as percentage of vehicle response and IC50 values represent the concentration of compound that inhibited the vehicle response by 50%. HCT-116 Culture Medium—Dulbeccos MEM (Sigma D6546) plus 10% heat inactivated fetal calf serum (Hyclone SH30071 Thermo Fischer Scientific) containing 2 mM Glutamine (Sigma cat no G-7513) and 50 U/ml Penicillin and Streptomycin Sulphate (Sigma Cat no P-0781).
Data were expressed as a percentage inhibition of the control, measured in the absence of inhibitor, as follows: % inhibition=100−((S^i/S^o)×100) where S^i is the signal in the presence of inhibitor and S0 is the signal in the presence of DMSO.
IC50 values were determined by non-linear regression analysis, after fitting the results of eight data points to the equation for sigmoidal dose response with variable slope (% activity against log concentration of compound), using Graphpad Prism® software.

Row | SMILES | IC50 [1] [µM] | IC50 (HCT 116 cell line) [µM]
1 | Nc1ncnc2c1nc(Sc1ccc3c(c1)OCO3)n2-c1ccc(C[C@H](N)C(=O)OC2CCCC2)cc1 [Example 7, Cyclopentyl 4-{6-amino-8-[(1,3-benzodioxol-5-yl)thio]-9H-purin-9-yl}-L-phenylalaninate] | 1 to 10 | 
2 | Nc1ncnc2c1nc(Sc1cc3c(cc1I)OCO3)n2CC[C@@H](N)C(=O)OC1CCCC1 [Example 4, (R)-cyclopentyl 2-amino-4-(6-amino-8-(6-iodobenzo[d][1,3]dioxol-5-ylthio)-9H-purin-9-yl)butanoate] | < 1 | < 1
3 | CC(C)(C)OC(=O)[C@@H](N)CCCn1c(Sc2cc3c(cc2I)OCO3)nc2c(N)ncnc21 [Example 5, (S)-tert-Butyl 2-amino-5-(6-amino-8-(6-iodobenzo[d][1,3]dioxol-5-ylthio)-9H-purin-9-yl)pentanoate] | < 1 | 1 to 10
4 | Nc1ncnc2c1nc(Sc1cc3c(cc1I)OCO3)n2CC[C@H](N)C(=O)OC1CCCC1 [Example 2, (S)-cyclopentyl 2-amino-4-(6-amino-8-(6-iodobenzo[d][1,3]dioxol-5-ylthio)-9H-purin-9-yl)butanoate] | < 1 | < 1
5 | Nc1ncnc2c1nc(Sc1cc3c(cc1Br)OCO3)n2-c1ccc(C[C@H](N)C(=O)OC2CCCC2)cc1 [Example 8, Cyclopentyl 4-{6-amino-8-[(6-bromo-1,3-benzodioxol-5-yl)thio]-9H-purin-9-yl}-L-phenylalaninate] | 1 to 10 | 
6 | Nc1ncnc2c1nc(Sc1cc3c(cc1I)OCO3)n2CC[C@H](N)C(=O)O [Example 10, (S)-2-amino-4-(6-amino-8-(6-iodobenzo[d][1,3]dioxol-5-ylthio)-9H-purin-9-yl)butanoic acid] | < 1 | 
7 | Nc1ncnc2c1nc(Sc1cc3c(cc1I)OCO3)n2CCC[C@@H](N)C(=O)OC1CCCC1 [Example 3, (R)-Cyclopentyl 2-amino-5-(6-amino-8-(6-iodobenzo[d][1,3]dioxol-5-ylthio)-9H-purin-9-yl)pentanoate] | < 1 | < 1
8 | Nc1ncnc2c1nc(Sc1cc3c(cc1I)OCO3)n2C[C@H](N)C(=O)OC1CCCC1 [Example 6, Cyclopentyl 3-{6-amino-8-[(6-iodo-1,3-benzodioxol-5-yl)thio]-9H-purin-9-yl}-L-alaninate] | < 1 | 
9 | Nc1ncnc2c1nc(Sc1cc3c(cc1Br)OCO3)n2-c1ccc(C[C@H](N)C(=O)O)cc1 [Example 14, 4-{6-amino-8-[(6-bromo-1,3-benzodioxol-5-yl)thio]-9H-purin-9-yl}-L-phenyl alanine] | < 1 | 
10 | Nc1ncnc2c1nc(Sc1cc3c(cc1I)OCO3)n2CCC[C@H](N)C(=O)O [Example 9, (S)-2-amino-5-(6-amino-8-(6-iodobenzo[d][1,3]dioxol-5-ylthio)-9H-purin-9-yl)pentanoic acid] | < 1 | 
11 | Nc1ncnc2c1nc(Sc1cc3c(cc1I)OCO3)n2CCC[C@H](N)C(=O)OC1CCCC1 [Example 1, (S)-Cyclopentyl 2-amino-5-(6-amino-8-(6-iodobenzo[d][1,3]dioxol-5-ylthio)-9H-purin-9-yl)pentanoate] | < 1 | < 1
12 | Nc1ncnc2c1nc(Sc1ccc3c(c1)OCO3)n2-c1ccc(C[C@H](N)C(=O)O)cc1 [Example 13, 4-{6-amino-8-[(1,3-benzodioxol-5-yl)thio]-9H-purin-9-yl}-L-phenylalanine] | 1 to 10 | 
